From ChEMBL document CHEMBL1129240, “Synthesis of acyclo-C-nucleosides in the imidazo[1,2-a]pyridine and pyrimidine series as antiviral agents” (J Med Chem, 1996)
Converted amounts (≈) assume the structure as drawn.

Key:
[1] = Cytotoxic concentration required to cause microscopically detectable alteration of normal cell morphology of HeLa cells; format: cell-based; settings: human, read-out: CC50
[2] = Cytotoxic concentration required to reduce CEM cell viability by 50%; format: cell-based; settings: human, CCRF-CEM (CEM) cells
[3] = Cytotoxic concentration required to cause microscopically detectable alteration of normal cell morphology of E6SM cells; format: cell-based; settings: human, read-out: CC50
[4] = Cytotoxic concentration required to cause microscopically detectable alteration of normal cell morphology of Vero cells; format: cell-based; settings: chlorocebus sabaeus, read-out: CC50
[5] = system: Human alphaherpesvirus 3; test: Minimum Inhibitory Concentration (MIC) tested for activity against Varicella-Zoster Virus(VZV) using YS/R (TK-) strain.; format: functional
[6] = Minimum cytotoxic concentration to reduce the HEL cell proliferation by 50%; format: cell-based; settings: human, HEL cells; read-out: MCC
[7] = system: Cytomegalovirus; test: Minimum Inhibitory Concentration (MIC) tested for activity against Cytomegalovirus (CMV) using AD169 strain; format: functional; settings: Human betaherpesvirus 5
[8] = system: Human alphaherpesvirus 3; test: Minimum Inhibitory Concentration (MIC) for activity against Varicella-Zoster Virus(VZV) using OKA (TK+) strain; format: functional
[9] = system: Human alphaherpesvirus 3; test: Minimum Inhibition Concentration (MIC) for activity against Varicella-Zoster Virus(VZV) using YS(TK+) strain.; format: functional
[10] = system: Cytomegalovirus; test: Minimum Inhibitory Concentration (MIC) tested for activity against Cytomegalovirus (CMV) using Davis strain; format: functional; settings: Human betaherpesvirus 5
[11] = system: Human alphaherpesvirus 3; test: Minimum Inhibitory Concentration (MIC) tested for activity against Varicella-Zoster Virus(VZV) using 07/1 (TK-) strain.; format: functional
[12] = system: Human alphaherpesvirus 3; test: Minimum Inhibitory Concentration (MIC) tested for activity against Varicella-Zoster Virus(VZV) using YS(TK+) strain.; format: functional
[13] = system: Human alphaherpesvirus 3; test: Minimum Inhibition Concentration (MIC) for activity against Varicella-Zoster Virus(VZV) using OKA (TK+) strain; format: functional
[14] = system: Human alphaherpesvirus 3; test: Minimum Inhibition Concentration (MIC) for activity against Varicella-Zoster Virus(VZV) using YS/R (TK-) strain.; format: functional
[15] = system: Human alphaherpesvirus 3; test: Minimum Inhibition Concentration (MIC) for activity against Varicella-Zoster Virus(VZV) using 07/1 (TK-) strain.; format: functional
[16] = Minimum cytotoxic concentration required to reduce human embryonic lung (HEL) cell proliferation by 50%; format: cell-based; settings: human embryonic lung (HEL) cells, read-out: MCC
[17] = system: Cytomegalovirus; test: Minimum Inhibition Concentration (MIC) for activity against Cytomegalovirus (CMV) using Davis strain; format: functional; settings: Human betaherpesvirus 5

Structure (SMILES) | MCC [1] [µg/mL] | CC50 [2] [mg/L] | MCC [3] [µg/mL] | MCC [4] [µg/mL] | MIC [5] [mg/L] | CC50 [6] [mg/L] | MIC [7] [mg/L] | MIC [8] [mg/L] | MIC [9] [mg/L] | MIC [10] [mg/L] | MIC [11] [mg/L] | MIC [12] [mg/L] | MIC [13] [mg/L] | MIC [14] [mg/L] | MIC [15] [mg/L] | CC50 [16] [mg/L] | MIC [17] [mg/L]
Cc1cccc2ncc(CSCc3ccccc3)n12 | 40 | 9.9 (≈ 36.9 µM) | 10 | 40 | – | – | – | – | – | – | – | – | – | – | – | – | –
Cc1c(Br)c(C)n2c(CSCCO)cnc2c1Br | > 200 | 17 (≈ 43.1 µM) | 100 | > 200 | > 10 | 70 (≈ 178 µM) | > 10 | > 40 | > 40 | > 10 | > 40 | – | – | – | – | – | –
Cc1cccc2ncc(CSCC(C)O)n12 (stereo unspecified) | 100 | 27 (≈ 114 µM) | 400 | > 400 | 24 (≈ 102 µM) | 90 (≈ 381 µM) | > 10 | – | – | > 10 | 24 (≈ 102 µM) | 20 (≈ 84.6 µM) | 30 (≈ 127 µM) | – | – | – | –
Cc1ccn2c(CSCC(O)CO)cnc2c1 (stereo unspecified) | 400 | > 100 | > 400 | > 400 | 50 (≈ 198 µM) | > 100 | > 50 | 100 (≈ 396 µM) | – | > 50 | – | > 100 | – | – | – | – | –
CCSCc1cnc2c(C)cccn12 | 10 | 4.1 (≈ 19.9 µM) | 200 | 400 | – | 35 (≈ 170 µM) | 2 (≈ 9.69 µM) | 10 (≈ 48.5 µM) | – | 2 (≈ 9.69 µM) | 6.8 (≈ 33 µM) | 5 (≈ 24.2 µM) | – | > 10 | – | – | –
Cc1ccn2c(CSCCCO)cnc2c1 | 40 | 17 (≈ 71.9 µM) | > 100 | > 40 | > 40 | > 100 | 30 (≈ 127 µM) | – | > 40 | 30 (≈ 127 µM) | – | – | > 40 | – | > 40 | – | –
Cc1c(Br)c(C)n2c(CSCc3ccccc3)cnc2c1Br | > 100 | 35 (≈ 79.5 µM) | > 40 | > 40 | – | > 100 | 1.7 (≈ 3.86 µM) | – | > 40 | 4 (≈ 9.09 µM) | – | – | > 40 | 40 (≈ 90.9 µM) | 40 (≈ 90.9 µM) | – | –
c1ccc(CSCc2cnc3ncccn23)cc1 | 40 | 4.2 (≈ 16.4 µM) | 100 | 200 | – | 40 (≈ 157 µM) | 2 (≈ 7.83 µM) | 8.8 (≈ 34.5 µM) | – | 2 (≈ 7.83 µM) | 5 (≈ 19.6 µM) | 2.4 (≈ 9.4 µM) | – | > 10 | – | – | –
OCCCSCc1cnc2c(Cl)cc(C(F)(F)F)cn12 | 100 | 27 (≈ 83.1 µM) | 100 | > 100 | > 40 | > 100 | > 40 | > 40 | > 40 | > 40 | > 40 | – | – | – | – | – | –
Cc1c(Br)cn2c(CSCCO)cnc2c1Br | > 100 | 37 (≈ 97.3 µM) | > 200 | > 40 | 20 (≈ 52.6 µM) | 50 (≈ 132 µM) | 20 (≈ 52.6 µM) | 35 (≈ 92.1 µM) | – | 30 (≈ 78.9 µM) | – | > 40 | – | – | 22 (≈ 57.9 µM) | – | –
Cc1cccc2ncc(CSCCO)n12 | 100 | 22 (≈ 99 µM) | 200 | 200 | – | 40 (≈ 180 µM) | > 10 | > 10 | – | > 10 | > 10 | > 10 | – | > 10 | – | – | –
Cc1cccn2c(CSCCO)cnc12 | 40 | 9.5 (≈ 42.7 µM) | 400 | 400 | – | 85 (≈ 382 µM) | 7 (≈ 31.5 µM) | 25 (≈ 112 µM) | – | 6 (≈ 27 µM) | 15 (≈ 67.5 µM) | 10 (≈ 45 µM) | – | > 10 | – | – | –
COC(=O)c1nc2ccccn2c1CSCCO | > 200 | 87 (≈ 327 µM) | > 400 | > 400 | > 25 | – | > 50 | > 25 | > 25 | > 50 | – | – | – | – | – | > 100 | –
Cc1ccn2c(CSCC(C)O)cnc2c1 (stereo unspecified) | 400 | 60 (≈ 254 µM) | > 400 | > 400 | 100 (≈ 423 µM) | > 100 | > 50 | > 100 | > 100 | – | – | – | – | – | – | – | > 50
Cc1cccc2ncc(CSCC(O)CO)n12 (stereo unspecified) | > 100 | 45 (≈ 178 µM) | 400 | 400 | > 40 | 75 (≈ 297 µM) | > 10 | > 40 | – | 25 (≈ 99.1 µM) | > 40 | > 40 | – | – | – | – | –
CCOC(=O)CSCc1cnc2cc(C)ccn12 | > 100 | 37 (≈ 140 µM) | 200 | > 200 | > 40 | 80 (≈ 303 µM) | 25 (≈ 94.6 µM) | > 40 | – | 23 (≈ 87 µM) | > 40 | > 40 | – | – | – | – | –
CC(O)CSCc1cnc2ncccn12 (stereo unspecified) | 400 | > 100 | > 400 | > 400 | – | > 100 | > 40 | > 40 | – | > 40 | > 40 | > 40 | – | > 40 | – | – | –
Nc1nc2c(ncn2COCCO)c(=O)[nH]1 [ACYCLOVIR] | – | – | > 400 | – | – | > 100 | – | – | – | – | – | – | – | – | – | – | –
O=c1[nH]c(=O)n([C@H]2C[C@H](O)[C@@H](CO)O2)cc1/C=C/Br [BRIVUDINE] | > 400 | – | > 400 | > 400 | – | > 50 | – | – | 0.002 (≈ 0.006 µM) | – | – | – | 0.0009 (≈ 0.0027 µM) | > 20 | > 50 | – | –
Nc1ccn(C[C@@H](CO)OCP(=O)(O)O)c(=O)n1.O.O [CIDOFOVIR] | – | – | – | – | – | > 100 | 0.05 | – | 0.033 | 0.05 | – | – | 0.04 | 0.004 | – | – | –
O=c1[nH]cnc2c1ncn2[C@H]1CC[C@@H](CO)O1 [DIDANOSINE] | – | > 100 | – | – | – | – | – | – | – | – | – | – | – | – | – | – | –
Nc1nc2c(ncn2COC(CO)CO)c(=O)[nH]1 [GANCICLOVIR] | – | – | > 100 | – | – | – | 0.5 (≈ 1.96 µM) | – | – | 0.5 (≈ 1.96 µM) | – | – | – | – | – | – | –
NC(=O)c1ncn([C@@H]2O[C@H](CO)[C@@H](O)[C@H]2O)n1 [RIBAVIRIN] | > 200 | – | > 400 | > 400 | – | – | – | – | – | – | – | – | – | – | – | – | –
Cc1cn([C@H]2C[C@H](N=[N+]=[N-])[C@@H](CO)O2)c(=O)[nH]c1=O [ZIDOVUDINE] | – | > 125 | – | – | – | – | – | – | – | – | – | – | – | – | – | – | –
